Experimental data as given in US12559529B2, “NPY2 receptor agonists” (Boehringer Ingelheim International GmbH, priority 2019, dated 2026).

Tests used:
[1] = biological target: T1, Human Neuropeptide Y2 Receptor (Homo sapiens, UniProt P49146); experiment: Radioligand binding competition assay (RLB); details: Table 3; human 125I-PYY (1-36) 0.02 nM, Y2 receptor membranes; read-out: Ki
T1 construct: purchased CHEMICON HTS066M
T1 sequence (P49146 1-381): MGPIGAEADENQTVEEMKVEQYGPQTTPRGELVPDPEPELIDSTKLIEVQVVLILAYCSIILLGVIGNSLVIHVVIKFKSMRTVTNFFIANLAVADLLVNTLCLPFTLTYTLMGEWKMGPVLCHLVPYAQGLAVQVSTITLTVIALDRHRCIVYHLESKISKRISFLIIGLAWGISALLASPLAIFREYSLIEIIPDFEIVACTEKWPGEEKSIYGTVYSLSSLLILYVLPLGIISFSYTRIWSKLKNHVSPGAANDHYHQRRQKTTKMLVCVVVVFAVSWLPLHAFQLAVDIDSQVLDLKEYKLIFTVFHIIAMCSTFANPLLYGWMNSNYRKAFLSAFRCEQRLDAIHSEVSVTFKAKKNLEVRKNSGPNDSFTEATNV
Procedure, shortened: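 IC50 values come from nonlinear regression of sigmoidal dose-response curves of filter-bound radioactivity. Peptides competed with radioligand at human Y2 receptor membranes (0.5 μg protein/well) for 2 h at room temperature in pH 7.4 HEPES buffer containing Mg2+, Ca2+ and 0.2% ovalbumin.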

normal NMRI mice = experiment: Effect on acute food intake in normal NMRI mice; type: in vivo; details: male NMRI mice, 10 nmol/kg subcutaneously once
Procedure, shortened: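 A single 10 nmol/kg s.c. peptide dose was given 1 h before lights-off to male NMRI mice fasted from 6 h before the night phase (n=7-8). Intake was recorded continuously by microchip-identified HM-2 feeding channels. Values are normalized to vehicle controls (50 mM phosphate buffer pH7 with 5% Mannitol).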

Row | Ki [1] [nM] | Compound | Acute Food Intake 24 h [% vehicle] (normal NMRI mice)
1 | 3.58 | CC(C)CC(=O)N[C@@H](C)C(=O)N1CCC[C@H]1C(=O)N[C@@H](CCC(=O)O)C(=O)N[C@@H](CCCCNC(=O)COCCOCCNC(=O)COCCOCCNC(=O)CC[C@H](NC(=O)CCCCCCCCCCCCCCCCC(=O)O)C(=O)O)C(=O)N1CCC[C@H]1C(=O)N[C@@H](CCC(=O)O)C(=O)N[C@@H](CCC(=O)O)C(=O)N[C@@H](CCC(=O)O)C(=O)N[C@@H](C)C(=O)N[C@@H](CO)C(=O)N1CCC[C@H]1C(=O)N[C@@H](CCC(=O)O)C(=O)N[C@@H](CCC(=O)O)C(=O)N[C@@H](CC(C)C)C(=O)N[C@@H](CCC(N)=O)C(=O)N[C@@H](CCCNC(=N)N)C(=O)N[C@@H](Cc1ccc(O)cc1)C(=O)N[C@@H](Cc1ccc(O)cc1)C(=O)N[C@H](C(=O)N[C@@H](CCC(=O)O)C(=O)N[C@@H](CC(C)C)C(=O)N[C@@H](CCCNC(=N)N)C(=O)N[C@@H](Cc1c[nH]cn1)C(=O)N[C@@H](Cc1ccc(O)cc1)C(=O)N[C@@H](Cc1ccc(O)cc1)C(=O)N[C@@H](CC(N)=O)C(=O)N[C@@H](Cc1c[nH]c2ccccc12)C(=O)N[C@@H](CC(C)C)C(=O)N[C@H](C(=O)N[C@@H](CCCNC(=N)N)C(=O)N[C@@H](CCC(N)=O)C(=O)N[C@@H](CCCNC(=N)N)C(=O)N[C@@H](Cc1ccc(O)cc1)C(N)=O)[C@@H](C)O)C(C)C [Compound 185, N{alpha-4}-(3-methylbutanoyl)-N{epsilon-7}-[2-(2-{2-[2-(2-{2-[(4S)-4-carboxy-4-(17-carboxyheptadecanamido)butanamido]ethoxy}ethoxy)acetamido]ethoxy}ethoxy)acetamido]-[4A,7K,9E,11E,18Q,22V,23E,28Y,30W,31L]hPYY (4-36)] | 39
2 | 3.81 | CC[C@H](C)[C@H](NC(=O)[C@H](CCC(=O)O)NC(=O)[C@H](CCC(=O)O)NC(=O)[C@H](CCC(=O)O)NC(=O)[C@H](CO)NC(=O)[C@H](C)NC(=O)[C@H](CC(=O)O)NC(=O)[C@H](CCC(=O)O)NC(=O)[C@H](CCC(=O)O)NC(=O)[C@@H]1CCCN1C(=O)[C@H](CCCCNC(=O)COCCOCCNC(=O)COCCOCCNC(=O)CC[C@H](NC(=O)CCCCCCCCCCCCCCCCC(=O)O)C(=O)O)NC(=O)[C@H](CCC(=O)O)NC(=O)[C@@H]1CCCN1C(=O)[C@H](C)NC(=O)CC(C)C)C(=O)N[C@@H](CCC(N)=O)C(=O)N[C@@H](CCCNC(=N)N)C(=O)N[C@@H](Cc1ccc(O)cc1)C(=O)N[C@@H](Cc1ccc(O)cc1)C(=O)N[C@H](C(=O)N[C@@H](CO)C(=O)N[C@@H](CC(C)C)C(=O)N[C@@H](CCCNC(=N)N)C(=O)N[C@@H](Cc1c[nH]cn1)C(=O)N[C@@H](Cc1ccc(O)cc1)C(=O)N[C@@H](Cc1ccc(O)cc1)C(=O)N[C@@H](CC(N)=O)C(=O)N[C@@H](Cc1c[nH]c2ccccc12)C(=O)N[C@@H](CC(C)C)C(=O)N[C@H](C(=O)N[C@@H](CCCNC(=N)N)C(=O)N[C@@H](CCC(N)=O)C(=O)N[C@@H](CCCNC(=N)N)C(=O)N[C@@H](Cc1ccc(O)cc1)C(N)=O)[C@@H](C)O)C(C)C [Compound 193, N{alpha-4}-(3-methylbutanoyl)-N{epsilon-7}-[2-(2-{2-[2-(2-{2-[(4S)-4-carboxy-4-(17-carboxyheptadecanamido)butanamido]ethoxy}ethoxy)acetamido]ethoxy}ethoxy)acetamido]-[4A,7K,9E,14E,17I,18Q,22V,28Y,30W,31L]hPYY (4-36)] | 57
3 | 0.75 | CC(C)CC(=O)N[C@@H](C)C(=O)N1CCC[C@H]1C(=O)N[C@@H](CCC(=O)O)C(=O)N[C@@H](CCCCNC(=O)COCCOCCNC(=O)COCCOCCNC(=O)CC[C@H](NC(=O)CCCCCCCCCCCCCCCCC(=O)O)C(=O)O)C(=O)N1CCC[C@H]1C(=O)N[C@@H](CCC(=O)O)C(=O)N[C@@H](CCC(=O)O)C(=O)N[C@@H](CC(=O)O)C(=O)N[C@@H](C)C(=O)N[C@@H](CO)C(=O)N1CCC[C@H]1C(=O)N[C@@H](CCC(=O)O)C(=O)N[C@@H](C)C(=O)N[C@@H](CC(C)C)C(=O)N[C@@H](CCC(N)=O)C(=O)N[C@@H](CCCNC(=N)N)C(=O)N[C@@H](Cc1ccc(O)cc1)C(=O)N[C@@H](Cc1ccc(O)cc1)C(=O)N[C@H](C(=O)N[C@@H](CCC(=O)O)C(=O)N[C@@H](CC(C)C)C(=O)N[C@@H](CCCNC(=N)N)C(=O)N[C@@H](Cc1c[nH]cn1)C(=O)N[C@@H](Cc1ccc(O)cc1)C(=O)N[C@@H](Cc1ccc(O)cc1)C(=O)N[C@@H](CC(N)=O)C(=O)N[C@@H](Cc1c[nH]c2ccccc12)C(=O)N[C@@H](CC(C)C)C(=O)N[C@H](C(=O)N[C@@H](CCCNC(=N)N)C(=O)N[C@@H](CCC(N)=O)C(=O)N[C@@H](CCCNC(=N)N)C(=O)N[C@@H](Cc1ccc(O)cc1)C(N)=O)[C@@H](C)O)C(C)C [Compound 195, N{alpha-4}-(3-methylbutanoyl)-N{epsilon-7}-[2-(2-{2-[2-(2-{2-[(4S)-4-carboxy-4-(17-carboxyheptadecanamido)butanamido]ethoxy}ethoxy)acetamido]ethoxy}ethoxy)acetamido]-[4A,7K,9E,16A,18Q,22V,23E,28Y,30W,31L]hPYY (4-36)] | 50
4 | 0.6 | CC(C)CC(=O)N[C@@H](C)C(=O)N1CCC[C@H]1C(=O)N[C@@H](CCC(=O)O)C(=O)N[C@@H](CCCCNC(=O)COCCOCCNC(=O)COCCOCCNC(=O)CC[C@H](NC(=O)CCCCCCCCCCCCCCCCC(=O)O)C(=O)O)C(=O)N1CCC[C@H]1C(=O)N[C@@H](CCC(=O)O)C(=O)N[C@@H](CCC(=O)O)C(=O)N[C@@H](CC(=O)O)C(=O)N[C@@H](C)C(=O)N[C@@H](C)C(=O)N1CCC[C@H]1C(=O)N[C@@H](CCC(=O)O)C(=O)N[C@@H](CCC(=O)O)C(=O)N[C@@H](CC(C)C)C(=O)N[C@@H](CCC(N)=O)C(=O)N[C@@H](CCCCN)C(=O)N[C@@H](Cc1ccc(O)cc1)C(=O)N[C@@H](Cc1ccc(O)cc1)C(=O)N[C@H](C(=O)N[C@@H](CO)C(=O)N[C@@H](CC(C)C)C(=O)N[C@@H](CCCNC(=N)N)C(=O)N[C@@H](Cc1c[nH]cn1)C(=O)N[C@@H](Cc1ccc(O)cc1)C(=O)N[C@@H](Cc1ccc(O)cc1)C(=O)N[C@@H](CC(N)=O)C(=O)N[C@@H](Cc1c[nH]c2ccccc12)C(=O)N[C@@H](CC(C)C)C(=O)N[C@H](C(=O)N[C@@H](CCCNC(=N)N)C(=O)N[C@@H](CCC(N)=O)C(=O)N[C@@H](CCCNC(=N)N)C(=O)N[C@@H](Cc1ccc(O)cc1)C(N)=O)[C@@H](C)O)C(C)C [Compound 202, N{alpha-4}-(3-methylbutanoyl)-N{epsilon-7}-[2-(2-{2-[2-(2-{2-[(4S)-4-carboxy-4-(17-carboxyheptadecanamido)butanamido]ethoxy}ethoxy)acetamido]ethoxy}ethoxy)acetamido]-[4A,7K,9E,13A,18Q,19K,22V,28Y,30W,31L]hPYY (4-36)] | 48
